# Legend:
# [1] = target: T1, Nuclear receptor subfamily 1 group I member 3 (Rattus norvegicus, UniProt Q9QUS1); assay: Activation of rat CAR expressed in rat hepatocytes coexpressing CYP2B1 at 1 uM after 24 hrs by dual luciferase reporter gene assay; format: ADME, cell-based, Hepatocyte
# T1 sequence (Q9QUS1 whole entry): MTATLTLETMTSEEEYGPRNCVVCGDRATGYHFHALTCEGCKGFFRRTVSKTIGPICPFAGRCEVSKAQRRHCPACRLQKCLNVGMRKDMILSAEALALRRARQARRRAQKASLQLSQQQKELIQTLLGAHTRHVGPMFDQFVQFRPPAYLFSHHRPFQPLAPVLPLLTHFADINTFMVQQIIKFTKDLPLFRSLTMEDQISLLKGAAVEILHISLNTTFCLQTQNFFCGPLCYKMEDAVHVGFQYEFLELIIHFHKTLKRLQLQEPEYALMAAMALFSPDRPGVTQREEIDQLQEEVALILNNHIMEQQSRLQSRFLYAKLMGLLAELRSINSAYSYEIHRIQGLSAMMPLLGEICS
# [2] = target: T2, Nuclear receptor subfamily 1 group I member 3 (Homo sapiens, UniProt Q14994); assay: Activation of human CAR expressed in human HepG2 cells coexpressing CYP2B6 at 10 uM after 24 hrs by dual luciferase reporter gene assay; format: ADME, cell-based; conditions: hepg2, 24 h
# T2 sequence (Q14994 whole entry): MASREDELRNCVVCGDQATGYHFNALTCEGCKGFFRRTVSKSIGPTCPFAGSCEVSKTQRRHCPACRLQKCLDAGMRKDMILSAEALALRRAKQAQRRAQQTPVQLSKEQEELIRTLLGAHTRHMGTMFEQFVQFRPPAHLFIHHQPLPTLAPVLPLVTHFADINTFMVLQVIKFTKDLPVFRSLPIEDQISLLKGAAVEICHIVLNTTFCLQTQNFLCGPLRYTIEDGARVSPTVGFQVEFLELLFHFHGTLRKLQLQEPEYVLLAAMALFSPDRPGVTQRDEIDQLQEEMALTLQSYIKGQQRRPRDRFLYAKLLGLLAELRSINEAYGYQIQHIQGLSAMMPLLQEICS
# [3] = target: T2, Nuclear receptor subfamily 1 group I member 3; assay: Activation of human CAR expressed in human HepG2 cells coexpressing CYP2B6 at 0.25 uM after 24 hrs by dual luciferase reporter gene assay; format: ADME, cell-based; conditions: hepg2, 24 h
# [4] = target: T2, Nuclear receptor subfamily 1 group I member 3; assay: Activation of human CAR expressed in rat hepatocytes coexpressing CYP2B1 at 1 uM after 24 hrs by dual luciferase reporter gene assay; format: ADME, cell-based, Hepatocyte
# [5] = target: T3, Nuclear receptor subfamily 1 group I member 2 (Rattus norvegicus, UniProt Q9R1A7); assay: Antagonist activity at rat PXR expressed in human HepG2 cells coexpressing CYP3A4 assessed as inhibition of PCN-induced receptor activation at 30 uM after 24 hrs by dual luciferase reporter gene assay; format: ADME, cell-based; conditions: hepg2, 24 h
# T3 sequence (Q9R1A7 whole entry): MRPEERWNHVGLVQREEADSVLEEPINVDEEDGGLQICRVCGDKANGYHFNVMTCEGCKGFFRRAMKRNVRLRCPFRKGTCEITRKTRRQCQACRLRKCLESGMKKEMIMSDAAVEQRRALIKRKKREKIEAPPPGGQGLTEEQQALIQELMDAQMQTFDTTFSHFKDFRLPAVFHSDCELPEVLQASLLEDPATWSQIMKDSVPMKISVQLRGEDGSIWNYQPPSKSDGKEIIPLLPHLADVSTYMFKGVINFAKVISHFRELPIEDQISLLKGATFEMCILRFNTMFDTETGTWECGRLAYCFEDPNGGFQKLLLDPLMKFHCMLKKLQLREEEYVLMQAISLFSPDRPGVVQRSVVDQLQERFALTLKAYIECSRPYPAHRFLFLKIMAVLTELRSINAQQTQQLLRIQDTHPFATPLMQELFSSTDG
# [6] = target: T4, Nuclear receptor subfamily 1 group I member 2 (Homo sapiens, UniProt O75469); assay: Antagonist activity at human PXR expressed in human HepG2 cells coexpressing CYP3A4 assessed as inhibition of rifampicin-induced receptor activation at 30 uM after 24 hrs by dual luciferase reporter gene assay; format: ADME, cell-based; conditions: hepg2, 24 h
# T4 sequence (O75469 whole entry): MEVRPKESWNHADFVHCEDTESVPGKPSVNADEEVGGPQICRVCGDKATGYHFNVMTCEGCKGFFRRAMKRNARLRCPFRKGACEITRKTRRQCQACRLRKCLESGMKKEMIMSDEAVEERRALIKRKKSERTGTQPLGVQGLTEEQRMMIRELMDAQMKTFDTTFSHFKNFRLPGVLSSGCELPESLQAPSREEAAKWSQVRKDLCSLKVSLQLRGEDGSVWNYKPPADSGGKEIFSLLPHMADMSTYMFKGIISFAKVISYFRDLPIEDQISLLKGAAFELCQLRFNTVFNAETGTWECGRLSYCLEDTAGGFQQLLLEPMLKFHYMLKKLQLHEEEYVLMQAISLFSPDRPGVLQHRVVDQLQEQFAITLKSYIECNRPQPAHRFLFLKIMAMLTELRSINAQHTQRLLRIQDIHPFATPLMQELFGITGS
# CAR (CYP2B1 reporter) = target: T5, CAR (CYP2B1 reporter) (Rattus norvegicus, UniProt Q9QUS1); assay: Activation of rat CAR expressed in rat hepatocytes coexpressing CYP2B1 at 100 uM after 24 hrs by dual luciferase reporter gene assay relative to control; format: ADME, cell-based, Hepatocyte; conditions: rat hepatocytes expressing rat CAR and coexpressing CYP2B1, read-out: FC
# T5 sequence (Q9QUS1 whole entry): T1 sequence (Q9QUS1 whole entry)
# [7] = target: T6, CYP2B1 mRNA (CAR activation) (Rattus norvegicus, UniProt Q9QUS1); assay: Activation of CAR in rat hepatocytes assessed as upregulation of CYP2B1 mRNA expression at 100 uM after 24 hrs by RT-PCR analysis relative to control; format: ADME, cell-based, Hepatocyte; conditions: read-out: FC
# T6 sequence (Q9QUS1 whole entry): T1 sequence (Q9QUS1 whole entry)
# [8] = target: T7, CYP2B activity (CAR activation) (Rattus norvegicus, UniProt Q9QUS1); assay: Activation of CAR in rat hepatocytes assessed as increase in CYP2B-mediated benzyloxyresorufin O-dealkylation at 100 uM after 24 hrs by spectrofluorometric analysis relative to control; format: ADME, cell-based, Hepatocyte; conditions: probe benzyloxyresorufin (O-dealkylation), read-out: FC
# T7 sequence (Q9QUS1 whole entry): T1 sequence (Q9QUS1 whole entry)
# [9] = target: T4, Nuclear receptor subfamily 1 group I member 2; assay: Activation of human PXR expressed in rat hepatocytes coexpressing CYP3A4 at 10 uM after 24 hrs by dual luciferase reporter gene assay relative to control
# PXR (CYP3A4 reporter) [10] = target: T8, PXR (CYP3A4 reporter) (Rattus norvegicus, UniProt Q9R1A7); assay: Activation of rat PXR expressed in human HepG2 cells coexpressing CYP3A4 at 0.1 to 10 uM after 24 hrs by dual luciferase reporter gene assay relative to control; conditions: human HepG2 cells expressing rat PXR and coexpressing CYP3A4
# T8 sequence (Q9R1A7 whole entry): T3 sequence (Q9R1A7 whole entry)
# PXR (CYP3A4 reporter) [11] = target: T8, PXR (CYP3A4 reporter); assay: Activation of rat PXR expressed in rat hepatocytes coexpressing CYP3A4 at 10 uM after 24 hrs by dual luciferase reporter gene assay relative to control; conditions: rat hepatocytes expressing rat PXR and coexpressing CYP3A4
# [12] = target: T4, Nuclear receptor subfamily 1 group I member 2; assay: Activation of human PXR expressed in human HepG2 cells coexpressing CYP3A4 at 10 uM after 24 hrs by dual luciferase reporter gene assay relative to control; conditions: hepg2, 24 h
structure (smiles),measurement,setting,value
Clc1ccc(-c2nc3sccn3c2/C=N/OCc2ccc(Cl)c(Cl)c2)cc1,Activity,[1],Not Active
same,Activity,[2],Active
Clc1cnc(Oc2ccc(Oc3ncc(Cl)cc3Cl)cc2)c(Cl)c1,Activity,[3],Not Active
same,Activity,[4],Not Active
CC(=O)N1CCN(c2ccc(OCC3COC(Cn4ccnc4)(c4ccc(Cl)cc4Cl)O3)cc2)CC1 (stereo not drawn) [KETOCONAZOLE],inhibition (INH),[5],Active
same,inhibition (INH),[6],Active
CCC1(c2ccccc2)C(=O)NC(=O)NC1=O [PHENOBARBITAL SODIUM],"fold induction at 24 h, 100 µM",CAR (CYP2B1 reporter),9
same,"fold induction at 24 h, 100 µM",[7],48
same,"fold induction at 24 h, 100 µM",[8],12
CC(=O)[C@H]1[C@H](C#N)C[C@H]2[C@@H]3CC=C4C[C@@H](O)CC[C@]4(C)[C@H]3CC[C@@]21C [PREGNENOLONE CARBONITRILE],Activity,[9],Not Active
same,"fold induction at 24 h, 10 µM",PXR (CYP3A4 reporter) [10],19
same,"fold induction at 24 h, 10 µM",PXR (CYP3A4 reporter) [11],9
same,Activity,[12],Not Active

# Source: ChEMBL document CHEMBL3526076, “Species-dependent and receptor-selective action of bilobalide on the function of constitutive androstane receptor and pregnane X receptor” (Drug Metab Dispos, 2012)
